A word on the IC50: it is the midpoint of a concentration-inhibition curve.

This note sets out measurements from US20260184707A1, “PHARMACEUTICAL COMPOUNDS FOR THE TREATMENT OF COMPLEMENT MEDIATED DISORDERS” (ALEXION PHARMACEUTICALS, INC., priority 2022, published 2026).

Some results are limits rather than exact numbers.

The target in the assay is T1, Human complement C1s enzyme (Homo sapiens, UniProt P09871).
T1 construct: purified from human serum, Complement Technology, Inc; purchased Complement Technology, Inc; host or cells: human serum (plasma-derived native protein)
T1 sequence (P09871 438-688 limits assumed): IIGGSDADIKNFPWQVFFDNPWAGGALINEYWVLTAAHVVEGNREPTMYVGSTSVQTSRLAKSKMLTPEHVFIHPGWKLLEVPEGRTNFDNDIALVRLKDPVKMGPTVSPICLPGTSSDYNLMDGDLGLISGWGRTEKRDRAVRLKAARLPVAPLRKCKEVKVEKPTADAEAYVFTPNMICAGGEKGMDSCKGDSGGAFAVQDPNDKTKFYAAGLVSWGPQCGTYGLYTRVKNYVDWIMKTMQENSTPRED
T1 sequence (P09871 16-437 partner limits assumed): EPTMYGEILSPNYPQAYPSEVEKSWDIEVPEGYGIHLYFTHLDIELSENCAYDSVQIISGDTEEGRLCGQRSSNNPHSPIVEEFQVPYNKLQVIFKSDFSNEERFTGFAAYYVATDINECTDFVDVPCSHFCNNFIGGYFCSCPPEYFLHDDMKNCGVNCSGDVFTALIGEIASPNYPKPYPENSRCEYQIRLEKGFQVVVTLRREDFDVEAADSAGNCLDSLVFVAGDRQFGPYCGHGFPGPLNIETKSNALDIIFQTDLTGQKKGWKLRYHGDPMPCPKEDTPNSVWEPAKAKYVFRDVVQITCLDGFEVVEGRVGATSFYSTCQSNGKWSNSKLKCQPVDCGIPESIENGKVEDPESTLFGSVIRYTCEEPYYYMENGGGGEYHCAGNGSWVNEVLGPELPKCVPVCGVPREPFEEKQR
As to the kind of experiment: Human C1s enzyme assay. Type of assay: biochemical. As to conditions: human complement C1s enzyme 1.16 nM, substrate Z-L-Lys-SBzl, A405; read-out: IC50 (Stars). In outline:
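Thioesterase activity followed colorimetrically (DTNB, A405, 30-s reads) using 100 μM Z-L-Lys-SBzl substrate. Enzyme, human serum-derived C1s at 1.16 nM final, was incubated with test compound for 5 min, room temperature, pH 7.5 Tris buffer with 1 M NaCl. Rate-versus-concentration data fitted by nonlinear regression for IC50.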

As for `C[C@@H](Nc1cnc(-c2ccccc2F)n(CC(=O)NCc2cc3cnccc3[nH]2)c1=O)c1ccc(-c2ccccc2F)cc1` [Compound 308, (R)—N-((1H-pyrrolo[3,2-c]pyridine-2-yl)methyl)-2-(5-((1-(2′-fluoro-[1,1′-biphenyl]-4-yl)ethyl)amino)-2-(2-fluorophenyl)-6-oxopyrimidin-1(6H)-yl)acetamide], the IC50 was < 0.1 µM.

Consider `C[C@H](Nc1cnc(-c2ccccc2F)n(CC(=O)NCc2cc3cnccc3[nH]2)c1=O)c1ccc2c(c1)oc1ccccc12` [Compound 309, (S)-N-((1H-pyrrolo[3,2-c]pyridin-2-yl)methyl)-2-(5-((1-(dibenzo[b,d]furan-3-yl)ethyl)-amino)-2-(2-fluorophenyl)-6-oxopyrimidin-1(6H)-yl)acet-amide], for which the IC50 was < 0.1 µM.

As for `C[C@@H](Nc1cncn(CC(=O)NCc2cc3cnccc3[nH]2)c1=O)c1ccc2oc3ccccc3c2c1` [Compound 310, (R)-N-((1H-pyrrolo[3,2-c]pyridin-2-yl)methyl)-2-(5-((1-(dibenzo[b,d]furan-2-yl)ethyl)-amino)-6-oxopyrimidin-1(6H)-yl)acetamide], the IC50 was 0.1 to 1 µM.

Take `CC(C)(Nc1cnc(-c2ccccc2F)n(CC(=O)NCc2cc3cnccc3[nH]2)c1=O)c1ccc2oc3ccccc3c2c1` [Compound 311, N-((1H-pyrrolo[3,2-c]pyridine-2-yl)methyl)-2-(5-((2-(dibenzo[b,d]furan-2-yl)propan-2-yl)amino)-2-(2-fluorophenyl)-6-oxopyrimidin-1(6H)-yl)acetamide]: the IC50 is 0.1 to 1 µM.

For `O=C(Cn1c(-c2cn[nH]c2)ncc(NCc2ccc3oc4ccccc4c3c2)c1=O)NCc1cc2cnccc2[nH]1` [Compound 312, N-((1H-pyrrolo[3,2-c]pyridine-2-yl)methyl)-2-(5-((dibenzo[b,d]furan-2-ylmethyl)amino)-6-oxo-2-(1H-pyrazol-4-yl)pyrimidin-1(6H)-yl)acetamide], the IC50 is < 0.1 µM.

On to `C[C@@H](Nc1cnc(N2CCn3c(nnc3C(F)(F)F)C2)n(CC(=O)NCc2cc3cnccc3[nH]2)c1=O)c1ccc2oc3ccccc3c2c1` [Compound 313, (R)-N-((1H-pyrrolo[3,2-c]pyridin-2-yl)methyl)-2-(5-((1-(dibenzo[b,d]furan-2-yl)ethyl)-amino)-6-oxo-2-(3-(trifluoro-methyl)-5,6-dihydro-[1,2,4]triazolo[4,3-a]pyrazin-7(8H)-yl)pyrimidin-1(6H)-yl)acet-amide], for which the IC50 was 0.1 to 1 µM.

For the compound `C[C@H](Nc1ncc(-c2ccccc2F)n(CC(=O)NCc2cc3cnccc3[nH]2)c1=O)c1ccc2oc3ccccc3c2c1` [Compound 314, (S)—N-((1H-pyrrolo[3,2-c]pyridine-2-yl)methyl)-2-(3-((1-(dibenzo[b,d]furan-2-yl)ethyl)amino)-6-(2-fluorophenyl)-2-oxopyrazin-1(2H)-yl)acetamide], the IC50 was < 0.1 µM.

`C[C@H](Nc1cnc(-c2ccncc2)n(CC(=O)NCc2cc3cnccc3[nH]2)c1=O)c1ccc2oc3ccccc3c2c1` [Compound 315, (S)-N-((1H-pyrrolo[3,2-c]pyridin-2-yl)methyl)-2-(5-((1-(dibenzo[b,d]furan-2-yl)ethyl)-amino)-6-oxo-2-(pyridin-4-yl)-pyrimidin-1(6H)-yl)acetamide]: the IC50 was < 0.1 µM.

For `Cc1cnc(N[C@@H](C)c2ccc3oc4ccccc4c3c2)c(=O)n1CC(=O)NCc1cc2cnccc2[nH]1` [Compound 316, (S)-N-((1H-pyrrolo[3,2-c]pyridin-2-yl)methyl)-2-(3-((1-(dibenzo[b,d]furan-2-yl)ethyl)-amino)-6-methyl-2-oxopyrazin-1(2H)-yl)acetamide], the IC50 is < 0.1 µM.

Turning to `Nc1cnc(-c2ccccc2)n(CC(=O)NCc2cc3cnccc3[nH]2)c1=O` [Compound 317, N-((1H-pyrrolo[3,2-c]pyridin-2-yl)methyl)-2-(5-amino-6-oxo-2-phenylpyrimidin-1(6H)-yl)-acetamide], the IC50 is < 0.1 µM.
